Data on one compound can be found in patent US20240252496A1, “SELECTIVE HYPOTHALAMUS PERMEABLE HDAC6 INHIBITORS FORTREATMENT OF LEPTIN-RESISTANT OBESITY” (The Children’s Medical Center Corporation, priority 2022, published 2024).

For assay [1], the system named is DIO mice. Kind of assay: Glucose homeostasis in chronically treated DIO mice (GTT, ITT, insulin, HOMA-IR, liver H&E). In kind it is in vivo. The protocol:
DIO mice were treated with ACY775 (10 mg/kg/day, i.p.) for 3 weeks. Daily body weight (g) of DIO mice treated with vehicle (n=17) or ACY775 (n=17) during 3 weeks of treatment was determined. Daily food intake (g) during 3 weeks of vehicle or ACY775 treatment was assessed. 24 hours' food intake per mouse during the first week of vehicle or ACY775 treatment was determined. Serum leptin (ng/ml) levels after 3 weeks of vehicle (n=24) or ACY775 (n=24) treatment was assessed. Lean mass (g), fat mass (g) and fat percentage (%) after 3 weeks of vehicle (n=17) or ACY775 (n=17) treatment measured by Dual-energy X-ray absorptiometry (DEXA) scan. DEXA scans were performed in two different cohorts. Glucose tolerance test (GTT) after 1 week of vehicle (n=33) or ACY775 (n=26) treated DIO mice was assessed. Area of curve (AOC) analysis for GTT was performed. Blood glucose (mg/dl) levels after 1 week of vehicle (n=17) or ACY775 (n=16) were assessed in treated DIO mice. Insulin tolerance test (ITT) was performed after 2 weeks of vehicle (n=31) or ACY775 (n=21) treatment of DIO mice. Serum insulin (ng/ml) levels were measured after 3 weeks of vehicle (n=22) or ACY775 (n=21) in treated DIO mice. A homeostatic model assessment of insulin resistance (HOMA-IR) was analyzed after 3 weeks of vehicle (n=14) or ACY775 (n=13) treated DIO mice. […]
Blood glucose (mg/dl) levels were measured after 1 week of vehicle (n=16) or ricolinostat (n=16) treated DIO mice. GTT after 1 week of vehicle (n=17) or ricolinostat (n=16) treatment of DIO mice was assessed. AOC analysis for GTT was performed. ITT after 2 weeks of vehicle (n=17) or ricolinostat (n=16) treated DIG mice was measured. Serum insulin (ng/ml) levels after 3 weeks of vehicle (n=8) or ricolinostat (n=8) treatment were measured in DIO mice. Liver sections from 3 weeks of vehicle or ricolinostat treated DIG mice were stained by H&E.

Assay [2] has as its system HDAC6. Nature of the assay: Ac-tubulin immunoblotting in HEK293 cells. In kind it is cell-based.

With `O=C(CCCCCCNC(=O)c1cnc(N(c2ccccc2)c2ccccc2)nc1)NO` [Ricolinostat], in assay [1], the “insulin tolerance test (ITT) / insulin sensitivity” value is recorded as “did not improves glucose tolerance (FIG. 8M) or insulin sensitivity”. In assay [1] (after 1 week), the blood glucose levels entry is reported as “did not reduce blood glucose levels” and the “glucose tolerance (GTT)” value is “did not improves glucose tolerance”. In assay [1] (after 3 weeks), the circulating/serum insulin levels entry is “did not reduce insulin levels” and the “hepatic steatosis (liver H&E)” value is “no decrease in the hepatic steatosis”. In addition, the “tubulin acetylation (HDAC6 inhibitor activity) in cells” value in assay [2] was “confirmation of Ricolinstat's HDAC6 inhibitory activity”.
